Test system: C-reactive protein (CRP)
Experiment: CRP (hs-CRP) in blood, CHASE clinical study
Format: in vivo, human
Details: Group X 12 mg BID
Text: This is a two-part study comprising Part I and Part II. Following screening, Part I consists of a randomized, double-blind, placebo controlled dosing period of up to 12 weeks. The study shall be conducted at one or more study sites in Hawaii. Approximately 360 subjects qualified after completion of screening procedures shall be randomized in a 1:1:1 ratio to one of three treatment groups, per Table 1.
The Part I 12-week double-blind dosing period commences with V2, including randomization and first dose of study product, and continues with study visits at Week 1-2 (V3), Week 4 (V4), Week 8 (V5), and Week 12 (V6). V6 procedures will conclude Part I.
Blood shall be obtained at each visit for CRP. The screening specimen shall be processed at the local lab and reported to the study staff for eligibility determination; CRP samples at V7 and V8 may also be processed locally and reported directly to study staff. Samples for CRP from V2 through V6 may be batched, processed, and reported as specified in the Laboratory Manual.
At each these visits, blood was obtained for measurement of CRP, among other parameters. Table 7A provides a summary of the CRP measurements (mg/L) at each visit and Table 7B provides a summary of the differences of CRP levels between V2 and V6.

[1] = V1 screening, subjects with baseline level greater than 2.0
[2] = V2 baseline pre-dose, all subjects
[3] = V2 baseline pre-dose, subjects not taking a hypertension agent
[4] = V2 baseline pre-dose, subjects not taking any cardiac therapeutic agent
[5] = V2 baseline pre-dose, subjects not taking statins
[6] = V2 baseline pre-dose, subjects taking an anti-diabetic agent
[7] = V2 baseline pre-dose, subjects with CAD
[8] = V2 baseline pre-dose, subjects with DM2, hypertension and hyperlipidemia but not CAD
[9] = V2 baseline pre-dose, subjects with Diabetes Mellitus Type II
[10] = V2 baseline pre-dose, subjects with baseline level greater than 2.0
[11] = V2 baseline pre-dose, subjects with hyperlipidemia
[12] = V3 Week 1-2, subjects with baseline level greater than 2.0
[13] = V4 Week 4, subjects with baseline level greater than 2.0
[14] = V5 Week 8, subjects with baseline level greater than 2.0
[15] = V6 Week 12, subjects not taking a hypertension agent
[16] = V6 Week 12, subjects not taking any cardiac therapeutic agent
[17] = V6 Week 12, subjects not taking statins
[18] = V6 Week 12, subjects taking an anti-diabetic agent

CC1=C(/C=C/C(C)=C/C=C/C(C)=C/C=C/C=C(C)/C=C/C=C(C)/C=C/C2=C(C)C(=O)C(O)CC2(C)C)C(C)(C)CC(O)C1=O (stereo not drawn) [Astaxanthin, astaxanthin]
CRP Max (V1 screening, all subjects): 15.96 mg/L
CRP Mean (SD) (V1 screening, all subjects): 5.43 (3.91) mg/L
CRP Median (V1 screening, all subjects): 3.95 mg/L
CRP Min (V1 screening, all subjects): 2.87 mg/L
CRP Max [1]: 15.96 mg/L
CRP Mean (SD) [1]: 5.64 (4.06) mg/L
CRP Median [1]: 3.98 mg/L
CRP Min [1]: 2.87 mg/L
CRP Max [2]: 17.86 mg/L
CRP Mean (SD) [2]: 5.52 (4.80) mg/L
CRP Median [2]: 3.64 mg/L
CRP Min [2]: 1.39 mg/L
CRP Max [3]: 3.64, 3.64 mg/L
CRP Mean (SD) [3]: 3.64 mg/L
CRP Median [3]: 3.64 mg/L
CRP Min [3]: 3.64, 3.64 mg/L
CRP Max [4]: 17.86 mg/L
CRP Mean (SD) [4]: 6.81 (6.86) mg/L
CRP Median [4]: 3.64 mg/L
CRP Min [4]: 1.39 mg/L
CRP Max [5]: 8.61 mg/L
CRP Mean (SD) [5]: 4.04 (2.48) mg/L
CRP Median [5]: 3.12 mg/L
CRP Min [5]: 2.16 mg/L
CRP Max [6]: 17.86 mg/L
CRP Mean (SD) [6]: 7.52 (5.87) mg/L
CRP Median [6]: 6.78 mg/L
CRP Min [6]: 1.39 mg/L
CRP Max [7]: 8.61, 8.61 mg/L
CRP Mean (SD) [7]: 8.61 mg/L
CRP Median [7]: 8.61 mg/L
CRP Min [7]: 8.61, 8.61 mg/L
CRP Max [8]: 17.86 mg/L
CRP Mean (SD) [8]: 7.30 (6.54) mg/L
CRP Median [8]: 4.94 mg/L
CRP Min [8]: 1.39 mg/L
CRP Max [9]: 17.86 mg/L
CRP Mean (SD) [9]: 7.52 (5.87) mg/L
CRP Median [9]: 6.78 mg/L
CRP Min [9]: 1.39 mg/L
CRP Max [10]: 17.86 mg/L
CRP Mean (SD) [10]: 5.93 (4.85) mg/L
CRP Median [10]: 4.29 mg/L
CRP Min [10]: 2.16 mg/L
CRP Max [11]: 17.86 mg/L
CRP Mean (SD) [11]: 6.71 (5.19) mg/L
CRP Median [11]: 4.95 mg/L
CRP Min [11]: 1.39 mg/L
CRP Max (V3 Week 1-2, all subjects): 6.72 mg/L
CRP Mean (SD) (V3 Week 1-2, all subjects): 3.72 (2.06) mg/L
CRP Median (V3 Week 1-2, all subjects): 3.44 mg/L
CRP Min (V3 Week 1-2, all subjects): 0.44 mg/L
CRP Max [12]: 6.72 mg/L
CRP Mean (SD) [12]: 3.97 (1.97) mg/L
CRP Median [12]: 3.55 mg/L
CRP Min [12]: 0.44 mg/L
CRP Max (V4 Week 4, all subjects): 15.83 mg/L
CRP Mean (SD) (V4 Week 4, all subjects): 3.98 (4.24) mg/L
CRP Median (V4 Week 4, all subjects): 2.56 mg/L
CRP Min (V4 Week 4, all subjects): 0.56 mg/L
CRP Max [13]: 15.83 mg/L
CRP Mean (SD) [13]: 4.22 (4.39) mg/L
CRP Median [13]: 3.27 mg/L
CRP Min [13]: 0.56 mg/L
CRP Max (V5 Week 8, all subjects): 18.24 mg/L
CRP Mean (SD) (V5 Week 8, all subjects): 4.90 (4.99) mg/L
CRP Median (V5 Week 8, all subjects): 3.71 mg/L
CRP Min (V5 Week 8, all subjects): 1.06 mg/L
CRP Max [14]: 18.24 mg/L
CRP Mean (SD) [14]: 5.29 (5.09) mg/L
CRP Median [14]: 4.08 mg/L
CRP Min [14]: 1.06 mg/L
CRP Max (V6 Week 12, all subjects): 11.04 mg/L
CRP Mean (SD) (V6 Week 12, all subjects): 3.45 (3.09) mg/L
CRP Median (V6 Week 12, all subjects): 2.70 mg/L
CRP Min (V6 Week 12, all subjects): 0.22 mg/L
CRP Max [15]: 2.70, 2.70 mg/L
CRP Mean (SD) [15]: 2.70 mg/L
CRP Median [15]: 2.70 mg/L
CRP Min [15]: 2.70, 2.70 mg/L
CRP Max [16]: 6.80 mg/L
CRP Mean (SD) [16]: 2.53 (2.56) mg/L
CRP Median [16]: 1.91 mg/L
CRP Min [16]: 0.22 mg/L
CRP Max [17]: 11.04 mg/L
CRP Mean (SD) [17]: 3.86 (3.78) mg/L
CRP Median [17]: 2.71 mg/L
CRP Min [17]: 0.22 mg/L
CRP Max [18]: 6.80 mg/L
CRP Mean (SD) [18]: 2.91 (2.07) mg/L
CRP Median [18]: 2.32 mg/L
CRP Min [18]: 1.02 mg/L
CRP Max (V6 Week 12, subjects with CAD): 2.72, 2.72 mg/L
CRP Mean (SD) (V6 Week 12, subjects with CAD): 2.72 mg/L
CRP Median (V6 Week 12, subjects with CAD): 2.72 mg/L
CRP Min (V6 Week 12, subjects with CAD): 2.72, 2.72 mg/L
